From patent publication US5559127A, “Fibrinogen receptor antagonists” (Merck & Co., Inc., priority 1995, dated 1996)

Tested on: human platelets
Assay: ADP-stimulated platelet aggregation assay (inhibition of aggregation of gel-filtered human platelets)
Assay type: cell-based
Settings: fibrinogen 100 μg/ml, Ca2+ 1 mM, 10 uM ADP, 37° C., read-out: IC50 (dose inhibiting aggregation by 50% relative to a control lacking the compound)
Protocol: The ADP-stimulated platelet aggregation assay was used to determine IC50 inhibition associated with compounds of the invention.
Human platelets were isolated from fresh blood, collected into acid citrate/dextrose by differential centrifugation followed by gel filtration on Sepharose 2B in divalent ion-free Tyrode's buffer (pH 7.4) containing 2% bovine serum albumin. Platelet aggregation was measured at 37° C. in a a Chronolog aggregometer. The reaction mixture contained gel-filtered human platelets (2×10^8 […]), fibrinogen (100 μg/ml), Ca^2+ (1 mM), and the compound to be tested. Aggregation was initiated by adding 10 uM ADP 1 minute after the other components had been added. The reaction was allowed to proceed for at least 2 minutes. The extent of inhibition of aggregation was expressed as the percentage of the rate of aggregation observed in the absence of inhibitor. The IC50 is the dose of a particular compound inhibiting aggregation by 50% relative to a control lacking the compound.

SMILES	IC50 [nM]
CCCCS(=O)(=O)N[C@@H](Cc1ccc2oc(CCCC3CCNCC3)cc2c1)C(=O)O [2(S)-(Butylsulfonylamino)-3-{5-[2'-3-(piperidin-4-ylpropyl)benzofuranyl]}propionic acid]	200
CCCCS(=O)(=O)N[C@@H](Cc1ccc2oc(C(=O)NCC3CCNCC3)cc2c1)C(=O)O [2(S)-(Butylsulfonylamino)-3-{5-[2'-(4-piperidinylmethyl)aminocarbonyl]benzofuranyl}propionic acid]	6600
CCCCS(=O)(=O)N[C@@H](CNC(=O)c1ccc2[nH]c(CCC3CCNCC3)nc2c1)C(=O)O [2-[2-(4-Piperidinyl)ethyl]benzimidazole-5-carbonyl-[2(S)-butylsulfonylamino]-β-alanine]	22

Continued, values first:

IC50 [nM]	SMILES
67	O=C(N[C@@H](CNC(=O)c1ccc2cc(CCC3CCNCC3)sc2c1)C(=O)O)OCc1ccccc1 [2-[2-(Piperidin-4-yl)ethyl]benzothiophene-6-N-[3-(2(S)-N-carbobenzyloxyaminopropionic acid)]carboxamide]
36	CCCCS(=O)(=O)N[C@@H](CNC(=O)c1ccc2cc(CCC3CCNCC3)sc2c1)C(=O)O [2-[2-(Piperidin-4-yl)ethyl]benzothiophene-6-N-[3-(2(S)-butylsulfonylaminopropionic acid)]carboxamide]
12	O=C(NC[C@H](NS(=O)(=O)c1ccccc1)C(=O)O)c1cc2cc(OCCC3CCNCC3)ccc2[nH]1 [5-[2-(4-Piperidinylethyl)oxy]-2-indolecarbonyl-2(S)-phenylsulfonyl0amino-β-alanine]
